Test results published in patent US9409952B2, “Peptide-compound cyclization method” (Chugai Seiyaku Kabushiki Kaisha, priority 2011, dated 2016).
Like-named read-outs stand apart in the source and are kept apart here. Starred links: 1 amine or outer side, 2 acyl side, 3 side chain; linkers in the order of their positions; H or OH if unused. Positions of bridges follow the written chain, without caps; N, C: chain ends. Non-standard residues stand in square brackets, D forms with d. Residues, ends and D or L forms follow the SMILES beside them. *: point of attachment. Arg(Me2s) = CN=C(NC)NCCC[C@H](N)C(=O)O; Lys(Me2) = CN(C)CCCC[C@H](N)C(=O)O; NMeF = CN[C@@H](Cc1ccccc1)C(=O)O; NMeGABA = CN(CCCC(=O)[*:2])[*:1]; NMeI = CC[C@H](C)[C@H](NC)C(=O)O; NMeβAla = CN(CCC(=O)[*:2])[*:1]; NMeL = CN[C@@H](CC(C)C)C(=O)O; NMeV = CN[C@H](C(=O)O)C(C)C; NMeA = CN[C@@H](C)C(=O)O; Piperidide = C1CCN(*)CC1; dNMeA = CN[C@H](C)C(=O)O; Sar = CNCC(=O)O; tBu = CC(C)(C)*

Legend:
[1] = Metabolic stability in human hepatic microsome; assay type: in vitro ADME; conditions: microsomes
[2] = PAMPA (parallel artificial membrane permeability assay); assay type: in vitro ADME; conditions: for Papp at 18 hours, 50 µM: PAMPA
How it was run: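 Artificial membrane was 10% (w/v) egg lecithin plus 0.5% (w/v) cholesterol in dodecane on a PVDF filter. A 10 mM DMSO stock was added at 0.5% (v/v) to donor buffer (50 mM MOPSO, pH 6.5, 5.0% glycocholic acid). After 18 h at 37 °C, LC/MS or LC/UV gave donor and acceptor levels for Pe.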

[3] = pH 7.4, human hepatic microsome, NADPH(+), read-out: CL NADPH(+)
[4] = membrane permeation rate (Pe), 50 mM MOPSO buffer pH 6.5 with 5.0% glycocholic acid, 37° C., 18 hours, read-out: iPAMPA Pe
[5] = membrane permeation rate (Pe), 50 mM MOPSO buffer pH 6.5 with 5.0% glycocholic acid, 37° C., 18 hours

CC(C)C[C@H]1C(=O)N[C@@H](C(C)C)C(=O)N(C)[C@@H](Cc2ccccc2)C(=O)N(C)[C@@H](C)C(=O)N[C@@H](Cc2ccccc2)C(=O)N[C@H](C(=O)N(C)[C@@H](Cc2ccccc2)C(=O)N[C@@H](C)C(=O)N2CCCCC2)CC(=O)N(C)CCC(=O)N[C@@H]([C@@H](C)O)C(=O)N(C)CC(=O)N1C [DP-200] ([NMeβAla]T[Sar][NMeL]V[NMeF][NMeA]FD[NMeF]A-Piperidide; lactam N-9)
microsomal CLint at 1 uM [1, 3]: 57 µL/min/mg
Papp at 18 hours, 50 µM [2, 4]: 22 ×10⁻⁶ cm/s

CC[C@H](C)[C@@H]1NC(=O)[C@H](CC(C)C)NC(=O)[C@H](C(C)C)NC(=O)[C@H](CC(C)C)N(C)C(=O)[C@H](CC(C)C)NC(=O)[C@H](Cc2ccccc2)NC(=O)[C@H]([C@@H](C)O)NC(=O)[C@H](CC(C)C)NC(=O)[C@H](Cc2ccccc2)NC(=O)[C@@H](C)N(C)C(=O)C[C@@H](C(=O)N2CCCCC2)NC1=O [DP-416] ([dNMeA]FLTFL[NMeL]VLID-Piperidide; lactam N-11)
microsomal CLint at 1 uM [1, 3]: 20 µL/min/mg
Papp at 18 hours, 50 µM [2, 4]: 0.23 ×10⁻⁶ cm/s

CC(C)C[C@@H]1NC(=O)[C@@H](C)N(C)C(=O)C[C@@H](C(=O)N2CCCCC2)NC(=O)[C@H](CC(C)C)N(C)C(=O)[C@H](Cc2ccccc2)N(C)C(=O)[C@H](CC(C)C)NC(=O)[C@H](Cc2ccccc2)N(C)C(=O)[C@H](C)N(C)C(=O)[C@H]([C@@H](C)O)NC1=O [DP-127] ([dNMeA]LT[NMeA][NMeF]L[NMeF][NMeL]D-Piperidide; lactam N-9)
microsomal CLint at 1 uM [1, 3]: 194 µL/min/mg
Papp at 18 hours, 50 µM [2, 4]: 47 ×10⁻⁶ cm/s

CC(C)C[C@H]1C(=O)N[C@H](C(=O)N(C)[C@@H](Cc2ccccc2)C(=O)N[C@@H](C)C(=O)N2CCCCC2)CC(=O)N(C)CCCC(=O)N[C@@H](C(C)C)C(=O)N(C)[C@@H](Cc2ccccc2)C(=O)N(C)[C@@H](CC(C)C)C(=O)N[C@@H]([C@@H](C)O)C(=O)N(C)[C@@H](C)C(=O)N(C)CC(=O)N1C [DP-385] ([NMeGABA]V[NMeF][NMeL]T[NMeA][Sar][NMeL]D[NMeF]A-Piperidide; lactam N-9)
microsomal CLint at 1 uM [1, 3]: 102 µL/min/mg
Papp at 18 hours, 50 µM [2, 4]: 18 ×10⁻⁶ cm/s

CC(C)C[C@@H]1NC(=O)C[C@@H](C(=O)N2CCCCC2)NC(=O)[C@H](COC(C)(C)C)NC(=O)[C@H]([C@@H](C)O)NC(=O)[C@H](Cc2ccccc2)N(C)C(=O)[C@H](CC(C)C)N(C)C(=O)CN(C)C1=O [DP-718] (L[Sar][NMeL][NMeF]TS(tBu)D-Piperidide; lactam N-7)
microsomal CLint at 1 uM [1, 3]: 99 µL/min/mg
Papp at 18 hours, 50 µM [2, 4]: 17 ×10⁻⁶ cm/s

CC[C@H](C)[C@@H]1NC(=O)[C@H](C(C)C)N(C)C(=O)[C@@H](C)N(C)C(=O)C[C@@H](C(=O)N2CCCCC2)NC(=O)[C@H](CC(C)C)NC(=O)[C@H](Cc2ccccc2)N(C)C(=O)[C@H](CC(C)C)N(C)C(=O)[C@H](Cc2ccccc2)NC(=O)[C@H]([C@@H](C)O)NC(=O)[C@H](CC(C)C)NC1=O [DP-339] ([dNMeA][NMeV]ILTF[NMeL][NMeF]LD-Piperidide; lactam N-10)
microsomal CLint at 1 uM [1, 3]: 213 µL/min/mg
Papp at 18 hours, 50 µM [2, 4]: 18 ×10⁻⁶ cm/s

CC[C@H](C)[C@H]1C(=O)N(C)[C@@H](CC(C)C)C(=O)N[C@H](C(=O)N2CCCCC2)CC(=O)N(C)[C@@H](C)C(=O)N(C)[C@@H](CC(C)C)C(=O)N[C@@H](CC(C)C)C(=O)N(C)[C@@H](Cc2ccccc2)C(=O)N[C@@H](COC(C)(C)C)C(=O)N(C)[C@@H](Cc2ccccc2)C(=O)N[C@@H]([C@@H](C)O)C(=O)N(C)[C@@H](C)C(=O)N1C [DP-100] ([NMeA][NMeL]L[NMeF]S(tBu)[NMeF]T[NMeA][NMeI][NMeL]D-Piperidide; lactam N-11)
microsomal CLint at 1 uM ([1]; human, pH 7.4, CL NADPH(+)): 80 µL/min/mg
Papp at 18 hours, 50 µM ([2]; pH 6.5): 1.7 ×10⁻⁶ cm/s

CC[C@H](C)[C@@H]1NC(=O)[C@@H](C)N(C)C(=O)C[C@@H](C(=O)N(C)[C@@H](Cc2ccccc2)C(=O)N[C@@H](C)C(=O)N2CCCCC2)NC(=O)[C@H](Cc2ccccc2)NC(=O)[C@H]([C@@H](C)O)NC(=O)[C@@H]2CCCN2C(=O)CNC(=O)[C@H](CC(C)C)N(C)C(=O)[C@H](Cc2ccccc2)N(C)C(=O)[C@H](CC(C)C)N(C)C(=O)[C@H](CC(C)C)NC1=O [DP-283] ([dNMeA]IL[NMeL][NMeF][NMeL]GPTFD[NMeF]A-Piperidide; lactam N-11)
Papp at 18 hours, 50 µM ([2]; pH 6.5): 1.5 ×10⁻⁶ cm/s

CC[C@H](C)[C@H](NC(=O)[C@H](C)N(C)C(=O)[C@@H](NC(=O)[C@H](Cc1ccccc1)N(C)C(=O)[C@H](CC(C)C)N(C)C(=O)[C@@H]1CC(=O)N[C@H](C)C(=O)N[C@@H](C(C)C)C(=O)N(C)[C@@H](Cc2ccccc2)C(=O)N(C)[C@@H](CC(C)C)C(=O)N(C)[C@@H](C)C(=O)N[C@@H]([C@@H](C)O)C(=O)N[C@@H](Cc2ccccc2)C(=O)N1)C(C)C)C(=O)N1CCCCC1 [DP-570] ([dA]V[NMeF][NMeL][NMeA]TFD[NMeL][NMeF]V[NMeA]I-Piperidide; lactam N-8)
Papp at 18 hours, 50 µM [2, 4]: 2.1 ×10⁻⁶ cm/s

CC(C)C[C@H]1C(=O)N[C@H](C(=O)N(C)[C@@H](Cc2ccccc2)C(=O)N(C)[C@@H](Cc2ccccc2)C(=O)N[C@@H](C)C(=O)N2CCCCC2)CC(=O)N[C@H](C(C)C)C(=O)N(C)[C@@H](Cc2ccccc2)C(=O)N(C)[C@@H](CC(C)C)C(=O)N[C@@H]([C@@H](C)O)C(=O)N(C)[C@@H](C)C(=O)N(C)[C@@H](CC(C)C)C(=O)N[C@@H](C(C)C)C(=O)N1C [DP-210] ([dV][NMeF][NMeL]T[NMeA][NMeL]V[NMeL]D[NMeF][NMeF]A-Piperidide; lactam N-9)
Papp at 18 hours, 50 µM [2, 4]: 1.8 ×10⁻⁶ cm/s

C/N=C(\NC)NCCC[C@@H]1NC(=O)[C@H](Cc2ccccc2)N(C)C(=O)[C@H](CC(C)C)NC(=O)[C@H](CC(C)C)N(C)C(=O)[C@H](Cc2ccccc2)NC(=O)[C@H](CC(C)C)N(C)C(=O)[C@H](CC(C)C)N(C)C(=O)[C@H](Cc2ccccc2)NC(=O)CN(C)C(=O)C[C@@H](C(=O)N(C)[C@@H](Cc2ccccc2)C(=O)N[C@@H](C)C(=O)N2CCCCC2)NC(=O)[C@H](CC(C)C)NC1=O [DP-598] ([Sar]F[NMeL][NMeL]F[NMeL]L[NMeF][Arg(Me2s)]LD[NMeF]A-Piperidide; lactam N-11)
iPAMPA Pe [2, 5]: 1.0E−07

CC(C)C[C@H]1C(=O)N(C)[C@@H](CC(C)C)C(=O)N[C@H](C(=O)N(C)[C@@H](Cc2ccccc2)C(=O)N[C@@H](C)C(=O)N2CCCCC2)CC(=O)N[C@H](C(C)C)C(=O)N(C)[C@@H](C)C(=O)N(C)[C@@H](Cc2ccccc2)C(=O)N(C)[C@@H](CC(C)C)C(=O)N[C@@H](Cc2c[nH]cn2)C(=O)N(C)CC(=O)N[C@@H](C(C)C)C(=O)N1C [DP-585] ([dV][NMeA][NMeF][NMeL]H[Sar]V[NMeL][NMeL]D[NMeF]A-Piperidide; lactam N-10)
Papp at 18 hours, 50 µM [2, 4]: 15 ×10⁻⁶ cm/s

CC(C)C[C@H]1C(=O)N(C)[C@@H](Cc2ccccc2)C(=O)N(C)[C@@H](Cc2ccccc2)C(=O)N[C@@H]([C@@H](C)O)C(=O)N(C)[C@@H](C)C(=O)N(C)[C@@H](CC(C)C)C(=O)N[C@H](C(=O)N2CCCCC2)CC(=O)N(C)[C@H](C)C(=O)N(C)[C@@H](CC(C)C)C(=O)N(C)[C@@H](CC(C)C)C(=O)N[C@@H](C)C(=O)N1C [DP-166] ([dNMeA][NMeL][NMeL]A[NMeL][NMeF][NMeF]T[NMeA][NMeL]D-Piperidide; lactam N-11)
Papp at 18 hours, 50 µM [2, 4]: 55 ×10⁻⁶ cm/s

CC(C)C[C@H]1C(=O)N(C)[C@@H](Cc2ccccc2)C(=O)N(C)[C@@H](CC(C)C)C(=O)N[C@H](C(=O)N(C)[C@@H](Cc2ccccc2)C(=O)N[C@@H](Cc2ccccc2)C(=O)N2CCCCC2)CC(=O)N[C@H](C(C)C)C(=O)N[C@@H](C)C(=O)N[C@@H]([C@@H](C)O)C(=O)N(C)[C@@H](C)C(=O)N[C@@H](Cc2ccccc2)C(=O)N1C [DP-577] ([dV]AT[NMeA]F[NMeL][NMeF][NMeL]D[NMeF]F-Piperidide; lactam N-9)
Papp at 18 hours, 50 µM [2, 4]: 0.94 ×10⁻⁶ cm/s

CC[C@H](C)[C@H]1C(=O)N[C@@H](C(C)C)C(=O)N(C)[C@@H](Cc2ccccc2)C(=O)N[C@@H](CC(C)C)C(=O)N(C)[C@@H](Cc2ccccc2)C(=O)N[C@H](C(=O)N(C)[C@@H](Cc2ccccc2)C(=O)N[C@@H](C)C(=O)N[C@H](C(=O)N[C@@H](Cc2ccccc2)C(=O)N2CCCCC2)[C@@H](C)O)CC(=O)N[C@@H](C)C(=O)N[C@@H](CC(C)C)C(=O)N1C [DP-572] (AL[NMeI]V[NMeF]L[NMeF]D[NMeF]ATF-Piperidide; lactam N-8)
iPAMPA Pe [2, 5]: 1.0E−07

CC[C@H](C)[C@H](NC(=O)[C@H](CC(C)C)NC(=O)[C@H](Cc1ccccc1)NC(=O)[C@@H]1CCCN1C(=O)[C@H](CC(C)C)NC(=O)[C@@H]1CC(=O)N[C@@H](Cc2ccccc2)C(=O)N(C)[C@@H](Cc2ccccc2)C(=O)N(C)[C@@H](CC(C)C)C(=O)N[C@@H]([C@@H](C)O)C(=O)N(C)[C@@H](C)C(=O)N(C)[C@@H](CC(C)C)C(=O)N1)C(=O)N1CCCCC1 [DP-910] (F[NMeF][NMeL]T[NMeA][NMeL]DLPFLI-Piperidide; lactam N-7)
Papp at 18 hours, 50 µM [2, 4]: 0.16 ×10⁻⁶ cm/s

CC(C)C[C@H]1C(=O)N(C)[C@@H](Cc2ccccc2)C(=O)N[C@@H]([C@@H](C)O)C(=O)N[C@@H](C)C(=O)N(C)[C@@H](C)C(=O)N[C@H](C(=O)N(C)[C@@H](Cc2ccccc2)C(=O)N[C@@H](C)C(=O)N2CCCCC2)CC(=O)N(C)CCC(=O)N(C)[C@@H](Cc2ccccc2)C(=O)N(C)[C@@H](C(C)C)C(=O)N(C)[C@@H](C)C(=O)N[C@@H](C)C(=O)N1C [DP-360] ([NMeβAla][NMeF][NMeV][NMeA]A[NMeL][NMeF]TA[NMeA]D[NMeF]A-Piperidide; lactam N-11)
Papp at 18 hours, 50 µM [2, 4]: 7.3 ×10⁻⁶ cm/s

CC(C)C[C@@H]1NC(=O)[C@H](CCCCN(C)C)NC(=O)[C@H](Cc2ccccc2)N(C)C(=O)[C@H](CC(C)C)NC(=O)[C@H](CC(C)C)N(C)C(=O)[C@H](Cc2ccccc2)NC(=O)[C@H](CC(C)C)N(C)C(=O)[C@H](CC(C)C)N(C)C(=O)[C@H](Cc2ccccc2)NC(=O)CN(C)C(=O)C[C@@H](C(=O)N(C)[C@@H](Cc2ccccc2)C(=O)N[C@@H](C)C(=O)N2CCCCC2)NC1=O [DP-594] ([Sar]F[NMeL][NMeL]F[NMeL]L[NMeF][Lys(Me2)]LD[NMeF]A-Piperidide; lactam N-11)
Papp at 18 hours, 50 µM [2, 4]: 1.3 ×10⁻⁶ cm/s
